Experimental data published in patent US20250011829A1, “MEMBRANE FOR MICROBIOLOGICAL ANALYSIS” (Sartorius Stedim Biotech GmbH, priority 2021, published 2025).

What was measured:
[1] = tested on: L. anisa WDCM 00106; format: cell-based, Legionella anisa
[2] = ILC; for adsorbed amount of surfactant on the membrane: surfactant concentration 0.1 g/L
[3] = Evaluation of wettability by filtration with activated carbon; format: physicochemical; conditions: membrane filters impregnated with 0.1 wt % surfactant; white spots indicate inhomogeneous wetting
Procedure: The wetting ability of membrane filters obtained in Example 1, which were impregnated with 0.1 wt % of each of Tween 80, Triton X100, Brij 35, SDS, and SDBS, was evaluated after filtration with activated carbon. For this purpose, the pieces with a diameter of 4.7 cm were placed with the application side of the membrane pointing upwards on a frit of a filtration unit before cups are attached thereon. All valves of the filtration bar are closed. 0.2 g of activated carbon is suspended in 1 L of RO water and 100 ml of filtration volume is measured after vigorous stirring and filled into the filtration cups. The pump is then switched on and the valves are opened. After filtration, the black filter pieces are placed on a white sheet of paper and photographed. White spots indicate an inhomogeneous wetting pattern (FIG. 1).

sodium dodecyl benzyl sulfonate [SDBS]
colony forming units of L. anisa [1]: sharp decrease in colony forming units
adsorbed amount of surfactant on the membrane [2]: 8.73 μg/cm^2

4-(1,1,3,3-tetramethylbutyl)-phenyl-polyethylene glycol [Triton X-100]
adsorbed amount of surfactant on the membrane [2]: 51.5 μg/cm^2
adsorbed amount relative to SDBS ([2]; surfactant concentration 1.0 g/L): two times higher compared to SDBS

polyoxyethylene(x)-sorbitan monooleate (x=80) [Tween 80]
wetting pattern after filtration with activated carbon [3]: white wetting spots were visible
